The values below come from patent publication US11168087B2, “Substituted imidazo[1,2-b]pyridazines, substituted imidazo[1,5-b]pyridazines, related compounds, and their use in the treatment of medical disorders” (BIAL—R&D Investments, S.A., priority 2016, dated 2021).

The structures appear in SMILES notation.

This assay deals with T1, glucocerebrosidase (Gcase) (Homo sapiens, UniProt P04062).
T1 construct: micellar solution containing 10 nM GCase and 100 nM saposin C
T1 sequence (P04062 40-536): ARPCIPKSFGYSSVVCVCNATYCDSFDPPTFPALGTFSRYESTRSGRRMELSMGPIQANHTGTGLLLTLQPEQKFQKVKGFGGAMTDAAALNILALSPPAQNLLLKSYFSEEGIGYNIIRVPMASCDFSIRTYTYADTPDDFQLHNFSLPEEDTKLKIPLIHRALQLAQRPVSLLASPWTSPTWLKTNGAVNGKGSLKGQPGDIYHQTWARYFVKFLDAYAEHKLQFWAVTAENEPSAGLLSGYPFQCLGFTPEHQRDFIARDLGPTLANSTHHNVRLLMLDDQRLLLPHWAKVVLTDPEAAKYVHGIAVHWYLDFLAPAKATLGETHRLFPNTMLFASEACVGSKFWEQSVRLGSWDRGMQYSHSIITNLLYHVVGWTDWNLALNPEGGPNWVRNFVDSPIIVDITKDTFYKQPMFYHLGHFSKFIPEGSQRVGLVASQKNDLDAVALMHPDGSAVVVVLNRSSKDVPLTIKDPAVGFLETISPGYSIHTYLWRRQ
The experiment in a line: Glucocerebrosidase (Gcase) activation assay, 4-methylumbelliferyl-beta-D-glucopyranoside substrate, with saposin C. The following applies: 0.25 h; for activation at 0.1 µM: read-out: Percent Gcase Activation 0.1 μM Test Compound; for activation at 1 µM: read-out: Percent Gcase Activation 1 μM Test Compound. It is filed as biochemical. How it is done:
The ability of exemplary compounds to activate glucocerebrosidase (Gcase) was measured.
A 484 μL aliquot of a 1.0 mg/mL solution of phosphatidylserine (PS) (Sigma P7769) in chloroform was evaporated under a stream of nitrogen for 1 hour. The lipid film was dissolved over 4 minutes of vigorous vortexing in 40 mL of 176 mM K2HPO4/50 mM citric acid (pH 4.7) containing 7.5 μL of triton X-100, resulting in a mixed micellar preparation with a composition of 0.32 mM triton and 0.37 mol % PS. 4-Methylumbelliferyl-beta-D-glucopyranoside (ACROS-337025000) was dissolved in the micellar solution to a final concentration of 2 mM for use as the reaction substrate.
Test compounds were diluted to the desired concentrations with dimethylsulfoxide (DMSO) from 10 mM stocks, and 0.41 μL of the DMSO compound mixture was added to 100 μL of micellar solution containing 10 nM GCase and 100 nM saposin C (Enzo ALX-201-262-C050). Pre-incubation was allowed to occur for 30 minutes at room temperature, after which the reaction was initiated by combining 25 μL of substrate solution with 25 μL of compound/GCase/saposin mixture. The reaction proceeded for 15 minutes at room temperature and was stopped by adding 150 μL of 1M glycine, pH 12.5. The endpoint of the reaction was monitored by measuring fluorescence intensity (excitation: 365 nm; emission: 440 nm) on a SpectraMax i3 instrument (Molecular Devices). Test compounds were screened at 1.0 and 0.1 μM final concentration, and subsequent 8-point dose response curves were obtained using 3-fold dilutions from a maximum final concentration of 5 μM.
The symbol “+” indicates less than 5% Gcase activation; the symbol “++” indicates Gcase activation in the range of 5% up to 20%; and the symbol “+++” indicates Gcase activation greater than 20%.

Regarding `Cc1cc2ncc(C(=O)NC3CCCc4ccccc43)n2nc1Cl` (centres unmarked), the activation at 0.1 µM is under 5% and the activation at 1 µM fell in the range of 5 to 20%.

On to `CCC(NC(=O)c1cnc2cc(C)c(Cl)nn12)c1ccccc1` (centres unmarked), for which the activation at 0.1 µM is under 5% and the activation at 1 µM fell in the range of 5 to 20%.

As for `Cc1cc(-c2ccc(F)cc2C#N)nn2c(C(=O)N[C@@H](C)C3CC3)cnc12`, the activation at 0.1 µM lay in the range of 5 to 20% and the activation at 1 µM is over 20%.

As to `Cc1cc(C)c2cnc(C(=O)N[C@@H](C)C3CC3)n2n1`, the activation at 0.1 µM is under 5% and the activation at 1 µM was in the range of 5 to 20%.

On to `Cc1cc(C)c2cnc(C(=O)NC(C)(C)C3CC3)n2n1`, for which the activation at 0.1 µM is under 5% and the activation at 1 µM is over 20%.

As to `Cc1cc(C)c2cnc(C(=O)NC(C3CC3)C(F)(F)F)n2n1` (centres unmarked), the activation at 0.1 µM is under 5% and the activation at 1 µM is over 20%.

For the molecule `Cc1cc(-c2ccc(F)cc2)nn2c(C(=O)NC(C)(C)C3CC3)ncc12`, the activation at 0.1 µM is over 20% and the activation at 1 µM was over 20%.

For the molecule `Cc1cc(-c2ccc(F)cc2)nn2c(C(=O)N[C@@H](C)C3CC3)ncc12`, the activation at 0.1 µM was in the range of 5 to 20% and the activation at 1 µM was over 20%.

For the molecule `Cc1cc(-c2ccc(F)cc2)nn2c(C(=O)NC(C3CC3)C(F)(F)F)ncc12` (centres unmarked), the activation at 0.1 µM is over 20% and the activation at 1 µM was over 20%.

`Cc1cc(-c2cccc(F)c2)nn2c(C(=O)NC(C)(C)C3CC3)ncc12`: the activation at 0.1 µM was over 20% and the activation at 1 µM is over 20%.

Regarding `Cc1cc(-c2cccc(F)c2)nn2c(C(=O)NC(C)C(F)(F)F)ncc12` (centres unmarked), the activation at 0.1 µM lay within 5 to 20% and the activation at 1 µM is over 20%.

With `Cc1cc(-c2ccc(F)cc2)nn2c(C(=O)NC(C)C(F)(F)F)ncc12` (centres unmarked), the activation at 0.1 µM was in the range of 5 to 20% and the activation at 1 µM is over 20%.

For `Cc1cc(-c2ccc(F)cc2)nn2c(C(=O)N[C@@H](C)C3CC3)nnc12`, the activation at 0.1 µM is under 5% and the activation at 1 µM was under 5%.

Take `Cc1cc(-c2cccnc2)nc2c(C(=O)NC(C3CC3)C(F)(F)F)nsc12` (centres unmarked): the activation at 0.1 µM is under 5% and the activation at 1 µM is 5 to 20%.

Take `COc1cccc(-c2cc(C)c3snc(C(=O)N[C@@H](C)C4CC4)c3n2)n1`: the activation at 0.1 µM is under 5% and the activation at 1 µM was 5 to 20%.

`Cc1cc(-c2ccccn2)nc2c(C(=O)NC(C3CC3)C(F)(F)F)nsc12` (centres unmarked): the activation at 0.1 µM was under 5% and the activation at 1 µM was in the range of 5 to 20%.

Take `Cc1cc(-c2cccc(C(N)=O)c2)nc2c(C(=O)NC(C3CC3)C(F)(F)F)nsc12` (centres unmarked): the activation at 0.1 µM is under 5% and the activation at 1 µM lay in the range of 5 to 20%.

As to `Cc1cc(-c2cccc3ocnc23)nc2c(C(=O)NC(C3CC3)C(F)(F)F)nsc12` (centres unmarked), the activation at 0.1 µM was under 5% and the activation at 1 µM lay within 5 to 20%.

As to `Cc1cc(C)c2scc(C(=O)NC(C)(C)C3CC3)c2n1`, the activation at 0.1 µM is over 20% and the activation at 1 µM was over 20%.

In the case of `Cc1cc(C)c2scc(C(=O)NC(C3CC3)C(F)(F)F)c2n1` (centres unmarked), the activation at 0.1 µM is over 20% and the activation at 1 µM was over 20%.

On to `Cc1cc(-c2cccnc2)nc2c(C(=O)NC(C3CC3)C(F)(F)F)csc12` (centres unmarked), for which the activation at 0.1 µM is over 20% and the activation at 1 µM is over 20%.

For the molecule `Cc1cc(-c2cccnc2)nc2c(C(=O)NC(C)C3CC3)csc12` (centres unmarked), the activation at 0.1 µM is over 20% and the activation at 1 µM is over 20%.

As for `Cc1cc(-c2cccc(C(N)=O)c2)nc2c(C(=O)NC(C3CC3)C(F)(F)F)csc12` (centres unmarked), the activation at 0.1 µM is over 20% and the activation at 1 µM is over 20%.

For `Cc1cc(-c2cccc(C#N)c2)nn2c(C(=O)NC(C3CC3)C(F)(F)F)cnc12` (centres unmarked), the activation at 0.1 µM was over 20% and the activation at 1 µM is over 20%.

`Cc1cc(N2CCC(F)(F)C2)nn2c(C(=O)NC(C3CC3)C(F)(F)F)cnc12` (centres unmarked): the activation at 0.1 µM is over 20% and the activation at 1 µM is over 20%.
